This is an account of results in patent US6710064B2, “Hydantoin compounds useful as anti-inflammatory agents” (Bristol-Myers Squibb Co., priority 2000, dated 2004).

With `O=C1[C@H]2C[C@@H](OCc3ccc(Br)cc3)CN2C(=O)N1c1cc(Cl)cc(Cl)c1` [Example 6, (7aR,6R)-2-(3,5-dichloro-phenyl)-6-(4-bromobenzyloxy)-tetrahydro-pyrrolo[1,2-c]imidazole-1,3-dione], the melting point (as a rule, the temperature of the solid-liquid transition) is 135 °C.
